Source: patent US20240279215A1 (Cytokinetics, Incorporated, priority 2022, published 2024)

Molecular target: human NAMPT (Homo sapiens (Human), UniProt P43490)
Test: NMN fluorescence biochemical assay (human recombinant NAMPT enzyme assay)
Summary of the method: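 NMN formed was detected by fluorescence (Ex/Em 355/460 nm) after acetophenone, KOH and formic acid derivatization. The cell-free reaction ran 60 min at ambient temperature with 6 nM human NAMPT, 150 μM nicotinamide, 20 μM PRPP, 2.5 mM ATP, pH 7.2 HEPES, and compound dose responses.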

Chain of human NAMPT (P43490 whole entry): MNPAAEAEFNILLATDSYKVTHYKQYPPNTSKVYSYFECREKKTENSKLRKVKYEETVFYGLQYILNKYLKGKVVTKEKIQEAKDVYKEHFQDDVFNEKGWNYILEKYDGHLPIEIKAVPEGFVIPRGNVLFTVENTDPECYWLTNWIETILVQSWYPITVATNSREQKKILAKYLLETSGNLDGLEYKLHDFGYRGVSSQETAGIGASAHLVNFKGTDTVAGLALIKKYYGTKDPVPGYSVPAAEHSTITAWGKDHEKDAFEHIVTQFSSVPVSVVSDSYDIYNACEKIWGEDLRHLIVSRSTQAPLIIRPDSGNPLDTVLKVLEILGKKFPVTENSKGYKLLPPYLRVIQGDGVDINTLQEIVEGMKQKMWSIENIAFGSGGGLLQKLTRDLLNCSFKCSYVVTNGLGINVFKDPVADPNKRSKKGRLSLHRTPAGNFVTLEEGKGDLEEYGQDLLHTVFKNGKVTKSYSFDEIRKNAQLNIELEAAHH

Compound	AC1.4 Human [µM]	EC50 [µM]
C[C@H](NC(=O)c1cncc(F)c1)c1ccc(NC(=O)OCc2ccc(Cl)cc2)cc1 [Compound 159, (4-chlorophenyl)methyl N-{4-[(1S)-1-[(5-fluoropyridin-3-yl)formamido]ethyl]phenyl}carbamate]	1.33	4.3
C[C@H]1CCN(C(=O)Cc2ccc(NC(=O)OCc3ccc(Cl)cc3)cc2)C1 [Compound 244, (4-chlorophenyl)methyl N-(4-{2-[(3S)-3-methylpyrrolidin-1-yl]-2-oxoethyl}phenyl)carbamate]	2.39	5.67
Cc1ocnc1C(=O)N[C@@H](C)c1ccc(NC(=O)OCc2ccc(Cl)cc2)cc1 [Compound 241, (4-chlorophenyl)methyl N-{4-[(1S)-1-[(5-methyl-1,3-oxazol-4-yl)formamido]ethyl]phenyl}carbamate]	2.37	11.8
C[C@H](NC(=O)c1ccnn1C)c1ccc(NC(=O)OCc2ccc(Cl)cc2)cc1 [Compound 149, (4-chlorophenyl)methyl N-{4-[(1S)-1-[(2-methylpyrazol-3-yl)formamido]ethyl]phenyl}carbamate]	1.23	7
CC1(O)CCN(C(=O)Cc2ccc(NC(=O)OCc3ccc(Cl)cc3)cc2)CC1 [Compound 116, (4-chlorophenyl)methyl N-{4-[2-(4-hydroxy-4-methylpiperidin-1-yl)-2-oxoethyl]phenyl}carbamate]	0.95	6.77
COc1ccc(COC(=O)Nc2ccc([C@@H](C)C(=O)N3CCC[C@H]3CO)cc2)cc1 [Compound 47]	0.49	9.61
CN(C)S(=O)(=O)N1CC2CC(C1)C2Cc1ccc(NC(=O)OCc2cnco2)cc1 (stereo not shown) [Compound 433, oxazol-5-ylmethyl (4-((3-(N,N-dimethylsulfamoyl)-3-azabicyclo[3.1.1]heptan-6-yl)methyl)phenyl)carbamate]	0.21	7.43
Cc1ccc(Cc2ccc(NC(=O)OCc3ccncc3)cc2)cn1 [Compound 186, pyridin-4-ylmethyl (4-((6-methylpyridin-3-yl)methyl)phenyl)carbamate]	1.61	3.38
CS(=O)(=O)N1CCC(Cc2ccc(NC(=O)OCc3cnco3)cc2)CC1 [Compound 18, oxazol-5-ylmethyl (4-((1-(methylsulfonyl)piperidin-4-yl)methyl)phenyl)carbamate]	0.25	16.2
C[C@H](NC(=O)c1ccnn1C1CCC1)c1ccc(NC(=O)OCc2ccc(Cl)cc2)cc1 [Compound 210, (4-chlorophenyl)methyl N-{4-[(1S)-1-[(2-cyclobutylpyrazol-3-yl)formamido]ethyl]phenyl}carbamate]	1.91	3.82
O=C(Nc1ccc(CC(=O)N2CCN(CC(F)F)CC2)cc1)OCc1ccc(Cl)cc1 [Compound 282, (4-chlorophenyl)methyl N-(4-{2-[4-(2,2-difluoroethyl)piperazin-1-yl]-2-oxoethyl}phenyl)carbamate]	3.57	19.1
Cc1nocc1C(=O)N[C@@H](C)c1ccc(NC(=O)OCc2ccc(Cl)cc2)cc1 [Compound 150, (4-chlorophenyl)methyl N-{4-[(1S)-1-[(3-methyl-1,2-oxazol-4-yl)formamido]ethyl]phenyl}carbamate]	1.24	4.31

Next, values leading:

AC1.4 Human [µM]	EC50 [µM]	Compound
5.75	38.3	Cn1nccc1Cc1ccc(NC(=O)OCc2ccc(Cl)cc2)cc1 [Compound 314, 4-chlorobenzyl (4-((1-methyl-1H-pyrazol-5-yl)methyl)phenyl)carbamate]
0.07	4.77	CCC(=O)N1CCC2(CC(Cc3ccc(NC(=O)OCc4cnco4)cc3F)C2)C1 (stereo not shown) [Compound 367, oxazol-5-ylmethyl (3-fluoro-4-((6-propionyl-6-azaspiro[3.4]octan-2-yl)methyl)phenyl)carbamate]
4.65	19.8	O=C(Cc1ncco1)NCc1ccc(NC(=O)OCc2ccc(Cl)cc2)cc1 [Compound 297, (4-chlorophenyl)methyl N-(4-{[2-(1,3-oxazol-2-yl)acetamido]methyl}phenyl)carbamate]
5.08	8.69	O=C(Cc1ccc(NC(=O)OCc2ccc(Cl)cc2)cc1)NC1CCOCC1 [Compound 308, (4-chlorophenyl)methyl N-(4-{[(oxan-4-yl)carbamoyl]methyl}phenyl)carbamate]
3.36	39.9	CN1CC(C(=O)NCc2ccc(NC(=O)OCc3ccc(Cl)cc3)cc2)CC1=O (stereo not shown) [Compound 277, (4-chlorophenyl)methyl N-(4-{[(1-methyl-5-oxopyrrolidin-3-yl)formamido]methyl}phenyl)carbamate]
2.64	15.1	Cn1ccc(C(=O)NCc2ccc(NC(=O)OCc3ccc(Cl)cc3)cc2)c1 [Compound 254, (4-chlorophenyl)methyl N-(4-{[(1-methylpyrrol-3-yl)formamido]methyl}phenyl)carbamate]
0.73	19.3	CC(C)OC(=O)N1CCC(Cc2ccc(NC(=O)OCc3cnco3)cc2)CC1 [Compound 446, isopropyl 4-(4-(((oxazol-5-ylmethoxy)carbonyl)amino)benzyl)piperidine-1-carboxylate]
2.77	14.5	CCc1ncoc1C(=O)N[C@@H](C)c1ccc(NC(=O)OCc2ccc(Cl)cc2)cc1 [Compound 260, (4-chlorophenyl)methyl N-{4-[(1S)-1-[(4-ethyl-1,3-oxazol-5-yl)formamido]ethyl]phenyl}carbamate]
0.250	21.6	CC(=O)N1CCC(Cc2ccc(NC(=O)OCc3cnco3)cc2)C2CC21 (stereo not shown) [Compound 457, oxazol-5-ylmethyl (4-((2-acetyl-2-azabicyclo[4.1.0]heptan-5-yl)methyl)phenyl)carbamate]
2.83	11.9	COc1ccc(COC(=O)Nc2ccc(Cc3ccncc3)cc2)cc1 [Compound 262, 4-methoxybenzyl (4-(pyridin-4-ylmethyl)phenyl)carbamate]
0.33	38.6	CS(=O)(=O)N1CCC[C@H](c2ccc(NC(=O)OCc3cnco3)cc2)C1 [Compound 365, oxazol-5-ylmethyl (R)-(4-(1-(methylsulfonyl)piperidin-3-yl)phenyl)carbamate]
4.57	28	Cn1ccc(CC(=O)NCc2ccc(NC(=O)OCc3ccc(Cl)cc3)cc2)n1 [Compound 295, (4-chlorophenyl)methyl N-(4-{[2-(1-methylpyrazol-3-yl)acetamido]methyl}phenyl)carbamate]
4.93	23.5	CC(C)N1CC(=O)NC[C@@H]1c1ccc(NC(=O)OCc2ccc(Cl)cc2)cc1 [Compound 304, 4-chlorobenzyl (S)-(4-(1-isopropyl-5-oxopiperazin-2-yl)phenyl)carbamate]
0.07	3.97	CN(C)C(=O)N1CCC2(CC(c3ccc(NC(=O)OCc4cnco4)cc3F)C2)C1 (single isomer, unassigned) [Compound 364]
